Biological target: TLR2 (Homo sapiens, UniProt O60603)
Experiment: TLR2 agonist screening assay, HEK-Blue TLR2 reporter cell line (NF-kB-driven SEAP, absorbance at 600 nm)
Format: cell-based
Parameters: host or cells: HEK-293 (HEK-Blue TLR2 reporter cell line)
Conditions: HEK-Blue TLR2 reporter cells, agonist mode
From the text: TLRs are a class of cell-surface receptors expressed on many different cell types that recognize conserved structural motifs present on pathogen-derived molecules. TLR2 recognizes bacteria-derived lipopeptides. […] Provided herein is an assay to identify and characterize the binding affinities of novel TLR2 agonists.
The in vitro TLR2 assay consists of a cell line that responds to TLR2 engagement by producing a factor that elicits a color change in the culture media and can be readily measured by various colorimetric detection methods. This assay enables the identification of existing and novel compounds that engage TLR2 and, by virtue of compound dilution, to approximate the binding affinity of these compounds for eliciting a TLR2 signal.
The TLR2 screening assay was developed from the HEK-Blue TLR2 reporter cell line that is commercially available from Invivogen (San Diego, CA). The reporter cell line consists of HEK-293 embryonic kidney cells that have been engineered to express TLR2 and with an NF-kB promoter driving expression of Secreted Alkaline Phosphatase (SEAP). Upon engagement of TLR2, downstream signaling results in activation of NF-kB pathway activation and secretion of SEAR In the presence of the detection reagent in the tissue culture media, SEAP mediates a color change from clear to indigo that is readily assessed by measuring absorbance at 600 nm.
HEK-Blue TLR2 reporter cells are cultured according to manufacturer's specifications until a confluence of 70-90%, at which point the cells are trypsinized, counted, and plated into 96-well plates at approximately 40,000 cells per well. Cells are cultured overnight and the TLR2 assay is performed 16-24 hours post-plating into 96 well plates.
Compounds are diluted from stocks dissolved in DMSO and a 1% DMSO final concentration is maintained in all testing wells.
The assay consists of removing the cell culture media after cells have been cultured overnight and replacing the media with HEK-Blue Detection media with TLR2 agonists at indicated dilution schemes. The Detection media contains a chemical substrate that turns from clear to indigo when acted upon by SEAP. The HEK-Blue cells are then cultured overnight in Detection media with diluted compounds. After overnight culture with agonists, each well of the plate is assayed in a plate reader at 600 nanometer absorbance.
• (1) HEK-Blue TLR2 cells are diluted in complete DME culture medium and plated into 96-well plates at 40,000 cells per well and cultured overnight. • (2) After 16-24 hours in culture, the media is removed and replaced with 200 microliters per well of HEK-Blue Detection media. • (3) TLR2 agonists are diluted 100-fold from DMSO stocks into each well, yielding a final DMSO concentration of 1% in all wells. • (3) Treated cells are cultured overnight and the following day are assayed in plate reader for Absorbance at 600 nanometer.
Following assay measurements utilizing either HEK-Blue detection or cytokine release, all data is analyzed with the GraphPad Prism8 statistical package to determine EC50, binding and activity metrics for the TLR2 modulators.
Data is generated using protocol described in Example 44.

Sequence of TLR2 (O60603 21-784): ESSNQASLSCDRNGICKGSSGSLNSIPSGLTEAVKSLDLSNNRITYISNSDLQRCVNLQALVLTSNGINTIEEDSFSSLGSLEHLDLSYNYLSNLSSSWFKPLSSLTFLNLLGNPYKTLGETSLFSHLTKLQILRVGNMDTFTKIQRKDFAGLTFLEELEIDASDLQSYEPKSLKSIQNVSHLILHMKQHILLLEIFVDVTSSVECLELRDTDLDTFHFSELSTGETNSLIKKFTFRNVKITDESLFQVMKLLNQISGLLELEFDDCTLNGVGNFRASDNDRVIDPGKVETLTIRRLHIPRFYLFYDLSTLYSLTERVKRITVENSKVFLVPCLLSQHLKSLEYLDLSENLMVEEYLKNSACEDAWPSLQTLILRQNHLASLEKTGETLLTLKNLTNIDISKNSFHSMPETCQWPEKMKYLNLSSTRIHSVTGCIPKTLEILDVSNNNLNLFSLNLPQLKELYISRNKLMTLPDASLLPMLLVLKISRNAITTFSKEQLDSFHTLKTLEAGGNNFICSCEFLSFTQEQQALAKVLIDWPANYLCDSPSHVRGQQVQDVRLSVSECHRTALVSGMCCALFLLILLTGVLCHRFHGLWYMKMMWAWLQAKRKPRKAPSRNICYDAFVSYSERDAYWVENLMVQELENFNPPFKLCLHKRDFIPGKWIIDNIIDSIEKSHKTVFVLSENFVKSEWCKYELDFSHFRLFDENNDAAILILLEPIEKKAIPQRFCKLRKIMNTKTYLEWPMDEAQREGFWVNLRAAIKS

| Structure (SMILES) | EC50 (average of all runs (Table 4)) | EC50 (average of all runs (Table 3)) |
| --- | --- | --- |
| CCCCCCC(=O)N[C@@H](CNC(=O)c1ccc(C(=O)N2C[C@@H](C(=O)N[C@H]3C[C@@H]3c3ccccc3)[C@H](C(=O)N[C@H]3C[C@@H]3c3ccccc3)C2)cc1)C(=O)N[C@H]1C[C@@H]1c1ccccc1 [Compound 143, (3S,4S)-1-(4-(((S)-2-heptanamido-3-oxo-3-(((1S,2R)-2-phenylcyclopropyl)amino)propyl)carbamoyl)benzoyl)-N3,N4-bis((1S,2R)-2-phenylcyclopropyl)pyrrolidine-3,4-dicarboxamide] | 51 to 350 nM |  |
| CCCCCCCC(=O)N1CCN(Cc2ccc(C(=O)N3C[C@@H](C(=O)N[C@H]4C[C@@H]4c4ccccc4)[C@H](C(=O)N[C@H]4C[C@@H]4c4ccccc4)C3)cc2)C[C@H]1C(=O)NCCCCCC [Compound 122, (3S,4S)-1-(4-(((S)-3-(hexylcarbamoyl)-4-octanoylpiperazin-1-yl)methyl)benzoyl)-N3,N4-bis((1S,2R)-2-phenylcyclopropyl) pyrrolidine-3,4-dicarboxamide] | > 1000 nM |  |
| CCCCCCCS(=O)(=O)N1CCN(C(=O)c2ccc(C(=O)N3C[C@@H](C(=O)N[C@H]4C[C@@H]4c4ccccc4)[C@H](C(=O)N[C@H]4C[C@@H]4c4ccccc4)C3)cc2)CC1C(=O)NCCCCCC (stereo partly drawn) [Compound 047] |  | > 1000 nM |
| CCCCCCNC(=O)C1CN(C(=O)c2ccc(C(=O)N3C[C@@H](C(=O)N[C@H]4C[C@@H]4c4ccccc4)[C@H](C(=O)N[C@H]4C[C@@H]4c4ccccc4)C3)cc2)CCN1C(=O)CCC (stereo partly drawn) [Compound 055, (3S,4S)-1-(4-(4-butyryl-3-(hexylcarbamoyl)piperazine-1-carbonyl)benzoyl)-N3,N4-bis((1S,2R)-2-phenylcyclopropyl)pyrrolidine-3,4-dicarboxamide] |  | 351 to 1000 nM |
| CCCCCCCC(=O)N1CC(=O)N(Cc2ccc(C(=O)N3C[C@@H](C(=O)N[C@H]4C[C@@H]4c4ccccc4)[C@H](C(=O)N[C@H]4C[C@@H]4c4ccccc4)C3)cc2)C[C@@H]1C(=O)NCCCCCC [Compound 074, (3S,4S)-1-(4-(((R)-5-(hexylcarbamoyl)-4-octanoyl-2-oxopiperazin-1-yl)methyl)benzoyl)-N3,N4-bis((1S,2R)-2-phenylcyclopropyl)pyrrolidine-3,4-dicarboxamide] |  | 51 to 350 nM |
| CCCCCCCCC(=O)N1CCN(C(=O)c2ccc(C(=O)N3C[C@@H](C(=O)N[C@H]4C[C@@H]4c4ccccc4)[C@H](C(=O)N[C@H]4C[C@@H]4c4ccccc4)C3)cc2)CC1C(=O)NCCCCCC (stereo partly drawn) [Compound 051, (3S,4S)-1-(4-(3-(hexylcarbamoyl)-4-nonanoylpiperazine-1-carbonyl)benzoyl)-N3,N4-bis((1S,2R)-2-phenylcyclopropyl)pyrrolidine-3,4-dicarboxamide] |  | 0.1 to 50 nM |
| CCCCCCCCCNC(=O)[C@@H]1CN(C(=O)c2ccc(C(=O)N3C[C@@H](C(=O)N[C@H]4C[C@@H]4c4ccccc4)[C@H](C(=O)N[C@H]4C[C@@H]4c4ccccc4)C3)cc2)CCN1C(C)=O [Compound 257, (3S,4S)-1-(4-((S)-4-acetyl-3-(nonylcarbamoyl)piperazine-1-carbonyl)benzoyl)-N3,N4-bis((1S,2R)-2-phenylcyclopropyl)pyrrolidine-3,4-dicarboxamide] | 351 to 1000 nM |  |
| CO[C@H]1CN(C(=O)c2ccc(C(=O)N3C[C@@H](C(=O)N[C@H]4C[C@@H]4c4ccccc4)[C@H](C(=O)N[C@H]4C[C@@H]4c4ccccc4)C3)cc2)C[C@@H]1NC(=O)NCc1ccc(F)cc1 [Compound 183, (3S,4S)-1-(4-((3S,4S)-3-(3-(4-fluorobenzyl)ureido)-4-methoxypyrrolidine-1-carbonyl)benzoyl)-N3,N4-bis((1S,2R)-2-phenylcyclopropyl)pyrrolidine-3,4-dicarboxamide] | 51 to 350 nM |  |
| CCCCCCCCCCCCCCC(=O)NC1CCN(S(=O)(=O)c2cccc(C(=O)N3C[C@@H](C(=O)N[C@H]4C[C@@H]4c4ccccc4)[C@H](C(=O)N[C@H]4C[C@@H]4c4ccccc4)C3)c2)CC1 [Compound 194, (3S,4S)-1-(3-((4-pentadecanamidopiperidin-1-yl)sulfonyl)benzoyl)-N3,N4-bis((1S,2R)-2-phenylcyclopropyl)pyrrolidine-3,4-dicarboxamide] | > 1000 nM |  |
| CCCCCCCCCCCCCCC(=O)NC1CCN(S(=O)(=O)c2ccc(C(=O)N3C[C@@H](C(=O)N[C@H]4C[C@@H]4c4ccccc4)[C@H](C(=O)N[C@H]4C[C@@H]4c4ccccc4)C3)cc2)CC1 [Compound 165, (3S,4S)-1-(4-((4-pentadecanamidopiperidin-1-yl)sulfonyl)benzoyl)-N3,N4-bis((1S,2R)-2-phenylcyclopropyl)pyrrolidine-3,4-dicarboxamide] | > 1000 nM |  |
| CCCCCCCC(=O)N1CCCN(C(=O)c2cccc(C(=O)N3C[C@@H](C(=O)N[C@H]4C[C@@H]4c4ccccc4)[C@H](C(=O)N[C@H]4C[C@@H]4c4ccccc4)C3)c2)C[C@@H]1C(=O)NCCCCCC (single isomer, unassigned) [Compound 191] | 351 to 1000 nM |  |

Next, values leading:

| EC50 (average of all runs (Table 4)) | EC50 (average of all runs (Table 3)) | Structure (SMILES) |
| --- | --- | --- |
| > 1000 nM |  | CCCCCCCCCCCCCCNC(=O)[C@@H]1CN(C(=O)c2ccc(C(=O)N3C[C@@H](C(=O)N[C@H]4C[C@@H]4c4ccccc4)[C@H](C(=O)N[C@H]4C[C@@H]4c4ccccc4)C3)cc2)CCN1C(=O)C(C)C [Compound 250, (3S,4S)-1-(4-((S)-4-isobutyryl-3-(tetradecylcarbamoyl)piperazine-1-carbonyl)benzoyl)-N3,N4-bis((1S,2R)-2-phenylcyclopropyl)pyrrolidine-3,4-dicarboxamide] |
| > 1000 nM |  | CCCCCCCCCCCCCCCN[C@H]1CN(C(=O)c2ccc(C(=O)N3C[C@@H](C(=O)N[C@H]4C[C@@H]4c4ccccc4)[C@H](C(=O)N[C@H]4C[C@@H]4c4ccccc4)C3)cc2)C[C@@H]1O [Compound 087, (3S,4S)-1-(4-((3S,4S)-3-hydroxy-4-(pentadecylamino)pyrrolidine-1-carbonyl)benzoyl)-N3,N4-bis((1S,2R)-2-phenylcyclopropyl)pyrrolidine-3,4-dicarboxamide] |
| 51 to 350 nM |  | CCCCCCCO[C@H]1CN(C(=O)c2ccc(C(=O)N3C[C@@H](C(=O)N[C@H]4C[C@@H]4c4ccccc4)[C@H](C(=O)N[C@H]4C[C@@H]4c4ccccc4)C3)cc2)C[C@@H]1NC(=O)NCCCCC [Compound 156, (3S,4S)-1-(4-((3S,4S)-3-(heptyloxy)-4-(3-pentylureido)pyrrolidine-1-carbonyl)benzoyl)-N3,N4-bis((1S,2R)-2-phenylcyclopropyl)pyrrolidine-3,4-dicarboxamide] |
| 51 to 350 nM |  | CCCCCCCCCCCCCCNC(=O)[C@H]1CN(C(=O)c2ccc(C(=O)N3C[C@@H](C(=O)N[C@H]4C[C@@H]4c4ccccc4)[C@H](C(=O)N[C@H]4C[C@@H]4c4ccccc4)C3)cc2)CCO1 [Compound 150, (3S,4S)—N3,N4-bis ((1S,2R)-2-phenylcyclopropyl)-1-(4-((R)-2-(tetradecylcarbamoyl)morpholine-4-carbonyl)benzoyl) pyrrolidine-3,4-dicarboxamide] |
|  | 0.1 to 50 nM | CCCCCCCCCCCCCCNC(=O)[C@@H]1CN(C(=O)c2ccc(C(=O)N3C[C@@H](C(=O)N[C@H]4C[C@@H]4c4ccccc4)[C@H](C(=O)N[C@H]4C[C@@H]4c4ccccc4)C3)cc2)C[C@@H]1OC (single isomer, unassigned) [Compound 061, (3S,4S)-1-(4-((3R*,4R*)-3-methoxy-4-(tetradecylcarbamoyl)pyrrolidine-1-carbonyl)benzoyl)-N3,N4-bis((1S,2R)-2-phenylcyclopropyl)pyrrolidine-3,4-dicarboxamide] |
| > 1000 nM |  | CCCCCCCCCCCCCCNC(=O)C1CC(=O)N(Cc2ccc(C(=O)N3C[C@@H](C(=O)N[C@H]4C[C@@H]4c4ccccc4)[C@H](C(=O)N[C@H]4C[C@@H]4c4ccccc4)C3)cc2)C1 (stereo partly drawn) [Compound 100, (3S,4S)-1-(4-((2-oxo-4-(tetradecylcarbamoyl)pyrrolidin-1-yl)methyl)benzoyl)-N3,N4-bis((1S,2R)-2-phenylcyclopropyl)pyrrolidine-3,4-dicarboxamide] |
|  | 51 to 350 nM | CCCCCCCCCCCCCCNC(=O)[C@@H]1CN(C(=O)c2ccc(C(=O)N3C[C@@H](C(=O)N[C@H]4C[C@@H]4c4ccccc4)[C@H](C(=O)N[C@H]4C[C@@H]4c4ccccc4)C3)cc2)C[C@H]1NC(C)=O [Compound 028, (3S,4S)-1-(4-((3S,4R)-3-acetamido-4-(tetradecylcarbamoyl)pyrrolidine-1-carbonyl)benzoyl)-N3,N4-bis((1S,2R)-2-phenylcyclopropyl)pyrrolidine-3,4-dicarboxamide] |

Source: US11951094B2, “TLR2 modulator compounds, pharmaceutical compositions and uses thereof” (Axial Therapeutics, Inc., priority 2020, dated 2024)
